EC50 and Activity data for five compounds are collected here from ChEMBL document CHEMBL1151415, “Plant anticancer agents. XXIV. Alkaloid constituents of Simaba multiflora” (1983).

In the experiment the test system is KB. Description: Cytotoxicity against human KB cells. In kind it is functional. Particulars: for EC50: read-out: ED50 (the source's name).

The structures appear in SMILES notation. ≈ marks a conversion by molar mass, not a printed value. Calls of active or inactive are those of the source. The calls are words filed in the database; no cut-off is given here.

Regarding `O=c1ccc2nccc3c4cc(O)ccc4n1c23`, the EC50 was determined as 2.2 µg/mL (≈ 9.31 µM).
For `O=c1cc2c3ccccc3n3c(=O)ccc([nH]1)c23`, the result was inactive.
Same read-out and setting: with `COn1c(=O)cc2c3cc(O)ccc3n3c(=O)ccc1c23` the entry was “inactive”.
For `COn1c(=O)cc2c3ccccc3n3c(=O)ccc1c23`, the result was inactive.
Turning to `COc1ccc2c(c1)c1ccnc3ccc(=O)n2c31`, the EC50 was 2.1 µg/mL (≈ 8.39 µM).
